{
  "source": "ChEMBL document CHEMBL5465560",
  "about": "“Selectivity Literature for EUbOPEN Chemogenomic Library” (2024)",
  "key": {"[1]": {"biological_target": "Receptor tyrosine-protein kinase erbB-2 (Homo sapiens, UniProt P04626)", "sequence (P04626 whole entry)": "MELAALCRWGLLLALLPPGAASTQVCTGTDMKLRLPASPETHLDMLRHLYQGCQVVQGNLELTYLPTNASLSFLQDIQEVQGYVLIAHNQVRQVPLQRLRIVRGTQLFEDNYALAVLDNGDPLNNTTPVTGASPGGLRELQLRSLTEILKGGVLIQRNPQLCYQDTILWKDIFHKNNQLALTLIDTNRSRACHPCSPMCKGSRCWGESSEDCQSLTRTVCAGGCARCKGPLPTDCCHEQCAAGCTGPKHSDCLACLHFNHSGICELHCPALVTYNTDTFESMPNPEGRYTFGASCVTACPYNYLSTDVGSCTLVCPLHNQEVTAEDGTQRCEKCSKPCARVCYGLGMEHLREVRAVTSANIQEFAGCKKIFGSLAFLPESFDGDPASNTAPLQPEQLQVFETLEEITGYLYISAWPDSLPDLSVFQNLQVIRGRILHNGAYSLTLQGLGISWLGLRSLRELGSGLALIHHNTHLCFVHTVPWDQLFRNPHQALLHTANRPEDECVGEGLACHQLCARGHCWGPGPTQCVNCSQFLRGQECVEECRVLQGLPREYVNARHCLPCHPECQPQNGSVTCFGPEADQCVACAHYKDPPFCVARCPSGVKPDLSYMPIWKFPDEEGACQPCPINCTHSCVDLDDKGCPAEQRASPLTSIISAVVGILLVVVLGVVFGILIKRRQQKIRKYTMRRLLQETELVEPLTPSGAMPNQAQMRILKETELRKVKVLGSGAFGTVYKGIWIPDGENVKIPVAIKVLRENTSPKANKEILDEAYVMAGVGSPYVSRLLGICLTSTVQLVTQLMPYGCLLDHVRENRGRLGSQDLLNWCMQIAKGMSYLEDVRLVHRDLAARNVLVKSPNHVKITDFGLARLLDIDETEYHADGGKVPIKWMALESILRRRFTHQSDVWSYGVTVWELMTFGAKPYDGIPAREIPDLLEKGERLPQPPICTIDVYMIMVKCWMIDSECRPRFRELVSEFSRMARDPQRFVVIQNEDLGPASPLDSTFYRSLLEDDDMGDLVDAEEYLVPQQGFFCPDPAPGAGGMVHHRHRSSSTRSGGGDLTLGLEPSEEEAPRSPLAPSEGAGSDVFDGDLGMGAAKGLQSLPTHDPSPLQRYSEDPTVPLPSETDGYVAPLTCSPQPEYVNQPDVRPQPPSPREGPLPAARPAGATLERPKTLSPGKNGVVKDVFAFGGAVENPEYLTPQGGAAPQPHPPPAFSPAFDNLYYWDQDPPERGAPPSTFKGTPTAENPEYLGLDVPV", "experiment": "Selectivity interaction (KinomeScan (DiscoverX)) EUB0001049a ERBB2", "details": "at 1 µM"}, "[2]": {"biological_target": "T1, Serine/threonine-protein kinase 36 (Homo sapiens) (UniProt Q9NRP7)", "T1 sequence (whole entry)": "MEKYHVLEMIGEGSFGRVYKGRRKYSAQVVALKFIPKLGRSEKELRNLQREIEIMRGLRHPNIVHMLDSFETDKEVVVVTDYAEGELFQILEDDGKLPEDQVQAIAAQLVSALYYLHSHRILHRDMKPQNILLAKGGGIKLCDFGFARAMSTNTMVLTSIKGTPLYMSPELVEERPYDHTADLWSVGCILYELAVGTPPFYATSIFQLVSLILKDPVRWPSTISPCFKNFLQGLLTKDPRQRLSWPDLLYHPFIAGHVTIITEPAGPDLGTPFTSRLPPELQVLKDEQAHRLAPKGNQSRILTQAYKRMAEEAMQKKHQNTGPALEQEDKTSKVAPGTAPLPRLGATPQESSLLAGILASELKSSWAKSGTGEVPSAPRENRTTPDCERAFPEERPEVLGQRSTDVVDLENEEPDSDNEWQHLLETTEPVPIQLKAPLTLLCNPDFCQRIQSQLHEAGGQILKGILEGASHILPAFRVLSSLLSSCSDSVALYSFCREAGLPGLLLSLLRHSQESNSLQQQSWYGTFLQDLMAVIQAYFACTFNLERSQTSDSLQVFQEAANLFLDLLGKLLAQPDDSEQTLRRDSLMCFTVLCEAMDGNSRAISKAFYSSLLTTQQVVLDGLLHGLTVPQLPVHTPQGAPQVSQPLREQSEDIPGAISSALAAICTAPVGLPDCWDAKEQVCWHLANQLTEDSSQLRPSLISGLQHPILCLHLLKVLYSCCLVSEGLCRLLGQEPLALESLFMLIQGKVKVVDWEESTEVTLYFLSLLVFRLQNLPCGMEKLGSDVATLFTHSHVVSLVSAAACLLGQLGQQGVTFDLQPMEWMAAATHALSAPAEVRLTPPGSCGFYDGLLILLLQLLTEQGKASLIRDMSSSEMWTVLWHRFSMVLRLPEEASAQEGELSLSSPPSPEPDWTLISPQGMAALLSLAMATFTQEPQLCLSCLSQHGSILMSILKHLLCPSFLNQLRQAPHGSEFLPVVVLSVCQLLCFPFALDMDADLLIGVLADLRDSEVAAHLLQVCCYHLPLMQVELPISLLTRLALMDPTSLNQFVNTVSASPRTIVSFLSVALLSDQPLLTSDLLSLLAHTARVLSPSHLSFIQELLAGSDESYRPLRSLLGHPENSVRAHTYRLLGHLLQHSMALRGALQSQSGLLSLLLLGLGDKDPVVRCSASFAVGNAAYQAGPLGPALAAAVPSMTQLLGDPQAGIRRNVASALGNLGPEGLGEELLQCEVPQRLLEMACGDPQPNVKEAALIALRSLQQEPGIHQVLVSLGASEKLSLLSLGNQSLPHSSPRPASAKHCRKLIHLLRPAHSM", "experiment": "Selectivity interaction (KinomeScan (DiscoverX)) EUB0001079a STK36", "details": "at 1 µM"}, "[3]": {"biological_target": "Tyrosine-protein kinase Blk (Homo sapiens) (UniProt P51451)", "experiment": "Selectivity interaction (Kinase panel (Invitrogen)) EUB0000639a BLK", "details": "at 200 nM"}, "[4]": {"biological_target": "Mitogen-activated protein kinase kinase kinase kinase 5 (Homo sapiens) (UniProt Q9Y4K4)", "sequence (Q9Y4K4 whole entry, looked up)": "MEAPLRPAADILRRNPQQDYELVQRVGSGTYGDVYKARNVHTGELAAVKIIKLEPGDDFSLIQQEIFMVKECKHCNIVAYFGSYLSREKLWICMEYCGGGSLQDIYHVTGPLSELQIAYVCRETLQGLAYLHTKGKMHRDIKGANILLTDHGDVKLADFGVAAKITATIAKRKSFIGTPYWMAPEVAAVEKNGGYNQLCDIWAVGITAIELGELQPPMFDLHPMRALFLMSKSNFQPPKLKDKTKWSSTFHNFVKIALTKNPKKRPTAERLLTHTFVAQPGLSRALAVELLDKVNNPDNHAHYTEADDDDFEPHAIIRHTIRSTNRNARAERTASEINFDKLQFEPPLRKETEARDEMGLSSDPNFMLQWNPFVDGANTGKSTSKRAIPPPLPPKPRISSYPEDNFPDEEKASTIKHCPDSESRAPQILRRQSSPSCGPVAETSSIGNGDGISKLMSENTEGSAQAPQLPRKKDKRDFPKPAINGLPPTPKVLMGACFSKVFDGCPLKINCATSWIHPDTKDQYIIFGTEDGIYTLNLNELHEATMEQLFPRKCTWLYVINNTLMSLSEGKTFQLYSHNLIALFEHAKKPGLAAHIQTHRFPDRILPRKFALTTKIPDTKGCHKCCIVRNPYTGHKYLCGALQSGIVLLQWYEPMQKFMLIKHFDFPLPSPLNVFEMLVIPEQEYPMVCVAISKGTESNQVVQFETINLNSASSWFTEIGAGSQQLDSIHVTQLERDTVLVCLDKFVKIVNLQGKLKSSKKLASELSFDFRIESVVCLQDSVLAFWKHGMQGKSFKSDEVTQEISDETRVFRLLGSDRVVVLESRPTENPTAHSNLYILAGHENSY", "experiment": "Selectivity interaction (ActivX KiNativ screen (kinase selectivity in THP-1 cell lysates)) EUB0000639a MAP4K5", "type": "subcellular", "details": "lysate"}, "[5]": {"biological_target": "Mast/stem cell growth factor receptor Kit (Homo sapiens, UniProt P10721)", "experiment": "Selectivity interaction (Kinase screening (Nanosyn)) EUB0000604a KIT"}, "[6]": {"biological_target": "Proto-oncogene tyrosine-protein kinase ROS (Homo sapiens) (UniProt P08922)", "sequence (P08922 whole entry)": "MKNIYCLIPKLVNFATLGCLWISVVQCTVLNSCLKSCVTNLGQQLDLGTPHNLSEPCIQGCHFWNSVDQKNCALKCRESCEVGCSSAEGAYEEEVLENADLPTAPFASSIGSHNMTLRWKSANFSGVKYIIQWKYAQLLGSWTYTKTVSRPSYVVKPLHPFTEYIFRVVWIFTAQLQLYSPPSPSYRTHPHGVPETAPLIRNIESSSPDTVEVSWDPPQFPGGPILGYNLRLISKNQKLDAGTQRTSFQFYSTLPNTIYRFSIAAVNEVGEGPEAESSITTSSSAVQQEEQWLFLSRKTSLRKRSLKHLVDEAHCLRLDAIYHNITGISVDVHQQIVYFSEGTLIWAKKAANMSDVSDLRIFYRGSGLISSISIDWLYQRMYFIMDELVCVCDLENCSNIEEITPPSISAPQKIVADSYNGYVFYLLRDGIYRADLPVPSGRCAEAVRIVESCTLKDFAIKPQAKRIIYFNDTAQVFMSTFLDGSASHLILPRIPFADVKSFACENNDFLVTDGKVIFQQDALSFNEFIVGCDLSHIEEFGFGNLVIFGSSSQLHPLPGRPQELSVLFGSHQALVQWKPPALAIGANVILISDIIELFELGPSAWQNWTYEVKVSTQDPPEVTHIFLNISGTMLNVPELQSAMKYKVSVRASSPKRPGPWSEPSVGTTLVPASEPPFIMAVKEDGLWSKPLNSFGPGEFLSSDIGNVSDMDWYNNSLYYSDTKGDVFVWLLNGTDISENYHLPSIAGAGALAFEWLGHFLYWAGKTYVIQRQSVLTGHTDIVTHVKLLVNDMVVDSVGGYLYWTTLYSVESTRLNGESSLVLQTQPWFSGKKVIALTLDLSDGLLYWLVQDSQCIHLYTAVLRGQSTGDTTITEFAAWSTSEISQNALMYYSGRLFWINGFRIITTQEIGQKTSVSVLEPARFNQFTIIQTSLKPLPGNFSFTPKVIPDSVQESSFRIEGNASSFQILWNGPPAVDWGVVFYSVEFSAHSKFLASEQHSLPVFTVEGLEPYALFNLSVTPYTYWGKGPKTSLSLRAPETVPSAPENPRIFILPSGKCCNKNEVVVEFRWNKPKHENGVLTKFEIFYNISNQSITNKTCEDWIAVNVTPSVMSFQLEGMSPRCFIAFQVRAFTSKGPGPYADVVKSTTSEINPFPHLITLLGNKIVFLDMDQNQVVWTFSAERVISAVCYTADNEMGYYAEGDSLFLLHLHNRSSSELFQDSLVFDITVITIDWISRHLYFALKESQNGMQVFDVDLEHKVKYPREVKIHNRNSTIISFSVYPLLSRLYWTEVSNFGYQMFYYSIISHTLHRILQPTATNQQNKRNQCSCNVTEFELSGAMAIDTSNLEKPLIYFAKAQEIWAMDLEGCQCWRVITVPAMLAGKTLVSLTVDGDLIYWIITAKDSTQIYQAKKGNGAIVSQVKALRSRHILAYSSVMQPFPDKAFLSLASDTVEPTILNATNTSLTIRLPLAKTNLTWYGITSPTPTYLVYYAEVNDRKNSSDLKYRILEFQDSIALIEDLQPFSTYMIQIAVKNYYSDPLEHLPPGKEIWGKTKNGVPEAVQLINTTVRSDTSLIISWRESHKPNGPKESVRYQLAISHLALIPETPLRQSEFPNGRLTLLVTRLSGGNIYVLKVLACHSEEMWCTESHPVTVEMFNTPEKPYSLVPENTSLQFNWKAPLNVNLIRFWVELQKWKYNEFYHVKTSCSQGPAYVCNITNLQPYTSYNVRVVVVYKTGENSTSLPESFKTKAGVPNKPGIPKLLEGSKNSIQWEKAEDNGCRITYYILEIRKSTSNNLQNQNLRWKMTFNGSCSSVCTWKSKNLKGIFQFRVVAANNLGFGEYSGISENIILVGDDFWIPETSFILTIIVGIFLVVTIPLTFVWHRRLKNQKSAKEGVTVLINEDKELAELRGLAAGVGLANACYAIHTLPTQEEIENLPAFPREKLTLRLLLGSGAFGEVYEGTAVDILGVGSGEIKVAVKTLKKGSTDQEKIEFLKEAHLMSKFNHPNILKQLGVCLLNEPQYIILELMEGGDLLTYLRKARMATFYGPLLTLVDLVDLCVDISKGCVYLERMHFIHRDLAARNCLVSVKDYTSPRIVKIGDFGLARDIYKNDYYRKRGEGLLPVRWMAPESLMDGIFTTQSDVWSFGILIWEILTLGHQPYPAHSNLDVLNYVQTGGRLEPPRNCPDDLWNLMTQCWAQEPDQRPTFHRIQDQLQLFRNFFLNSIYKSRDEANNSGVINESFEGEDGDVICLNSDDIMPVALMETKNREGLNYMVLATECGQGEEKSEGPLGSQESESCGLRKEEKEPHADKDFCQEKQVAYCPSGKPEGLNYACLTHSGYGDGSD", "experiment": "Selectivity interaction (Kinase screening (Nanosyn)) EUB0000604a ROS1"}, "[7]": {"biological_target": "Bone morphogenetic protein receptor type-1B (Homo sapiens, UniProt O00238)", "sequence (O00238 whole entry)": "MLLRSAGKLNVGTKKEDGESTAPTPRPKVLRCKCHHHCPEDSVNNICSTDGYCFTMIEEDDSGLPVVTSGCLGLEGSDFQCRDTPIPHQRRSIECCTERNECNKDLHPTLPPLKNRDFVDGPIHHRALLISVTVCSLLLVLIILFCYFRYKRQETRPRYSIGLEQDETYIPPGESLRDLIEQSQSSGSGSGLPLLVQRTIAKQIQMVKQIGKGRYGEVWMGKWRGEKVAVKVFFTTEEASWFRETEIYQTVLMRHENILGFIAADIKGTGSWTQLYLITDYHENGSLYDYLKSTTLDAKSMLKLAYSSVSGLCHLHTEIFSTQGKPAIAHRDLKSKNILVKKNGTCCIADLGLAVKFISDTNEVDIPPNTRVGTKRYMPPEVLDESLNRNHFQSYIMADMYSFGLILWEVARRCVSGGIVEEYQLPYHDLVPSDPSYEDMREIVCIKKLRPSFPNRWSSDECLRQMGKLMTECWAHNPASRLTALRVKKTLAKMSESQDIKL", "details": "at 10 µM"}, "[8]": {"biological_target": "T2, Cytoplasmic tyrosine-protein kinase BMX (Homo sapiens) (UniProt P51813)", "T2 sequence (whole entry)": "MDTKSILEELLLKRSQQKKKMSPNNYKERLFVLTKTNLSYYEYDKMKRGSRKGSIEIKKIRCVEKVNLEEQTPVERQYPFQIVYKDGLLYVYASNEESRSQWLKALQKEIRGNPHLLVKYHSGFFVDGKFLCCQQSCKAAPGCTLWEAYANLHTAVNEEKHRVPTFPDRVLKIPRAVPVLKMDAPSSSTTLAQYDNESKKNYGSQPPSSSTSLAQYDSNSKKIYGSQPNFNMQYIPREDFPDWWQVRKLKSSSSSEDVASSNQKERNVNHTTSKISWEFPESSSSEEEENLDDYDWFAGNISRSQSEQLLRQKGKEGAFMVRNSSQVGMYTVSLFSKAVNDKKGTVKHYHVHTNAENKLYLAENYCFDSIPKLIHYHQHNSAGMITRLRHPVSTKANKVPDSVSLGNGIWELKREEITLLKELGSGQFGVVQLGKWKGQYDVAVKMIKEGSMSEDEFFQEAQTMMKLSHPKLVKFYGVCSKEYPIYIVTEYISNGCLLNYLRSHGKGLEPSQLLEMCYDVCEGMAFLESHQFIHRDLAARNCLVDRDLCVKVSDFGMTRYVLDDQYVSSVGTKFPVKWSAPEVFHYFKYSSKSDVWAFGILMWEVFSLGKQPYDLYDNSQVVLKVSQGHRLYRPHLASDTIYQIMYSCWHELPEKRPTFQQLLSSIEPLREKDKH", "experiment": "Selectivity interaction (Upstate Kinase Profiler service (Millipore)) EUB0000056c BMX", "details": "at 1 µM"}},
  "data": [
    {"smiles": "COc1cc(Nc2nc(C)cc(-c3cnn4nc(OC)ccc34)n2)cc(C(F)(F)F)c1", "values": [
      {"measurement": "% of control", "setting": "[1]", "value": 100, "unit": "%"}
    ]},
    {"smiles": "Nc1cnc(N2CCc3cc(S(=O)(=O)Nc4c(F)cc(Cl)cc4F)cc(N4CCCC4=O)c32)nc1", "note": "[TP-020n]", "values": [
      {"measurement": "% of control", "setting": "[2]", "value": 98, "unit": "%"}
    ]},
    {"smiles": "CC[C@@H]1[C@H](F)C(=O)N[C@@H]1COc1nccc2cc(C(N)=O)c(OC)cc12", "note": "[ZIMLOVISERTIB]", "values": [
      {"measurement": "% of inhibition", "setting": "[3]", "value": 4.04, "unit": "%"},
      {"measurement": "% of inhibition", "setting": "[4]; at 0.01 µM", "value": -0.9, "unit": "%"},
      {"measurement": "% of inhibition", "setting": "[4]; at 0.04 µM", "value": 0, "unit": "%"},
      {"measurement": "% of inhibition", "setting": "[4]; at 0.2 µM", "value": 3.2, "unit": "%"},
      {"measurement": "% of inhibition", "setting": "[4]; at 1 µM", "value": 9.9, "unit": "%"},
      {"measurement": "% of inhibition", "setting": "[4]; at 5 µM", "value": 11.8, "unit": "%"}
    ]},
    {"smiles": "Cc1cnc(Nc2ccc(F)cc2Cl)nc1-c1c[nH]c(C(=O)N[C@H](CO)c2cccc(Cl)c2)c1", "values": [
      {"measurement": "% of inhibition", "setting": "[5]", "value": 8, "unit": "%"},
      {"measurement": "% of inhibition", "setting": "[6]", "value": 3, "unit": "%"}
    ]},
    {"smiles": "Cc1cc([C@@H](C)Nc2ccccc2C(=O)O)c2nc(N3CCOCC3)cc(=O)n2c1", "note": "[AZD-6482]", "values": [
      {"measurement": "% of control", "setting": "[7]", "value": 97, "unit": "%"}
    ]},
    {"smiles": "Cc1ccc(-c2ccc3c(ccc4sc5c(c43)NC[C@@H](C)NC5=O)n2)cn1", "values": [
      {"measurement": "% of inhibition", "setting": "[8]", "value": 4, "unit": "%"}
    ]}
  ]
}
